Assay results as given in US9828350B2, “5,6-dihydro-2H-[1,4]oxazin-3-yl-amine derivatives useful as inhibitors of beta-secretase (BACE)” (Janssen Pharmaceutica NV, priority 2010, dated 2017).

What was measured:
[1] = target: recombinant BACE1 protein (Homo sapiens, UniProt P56817); test: Biochemical FRET based assay; settings: recombinant BACE1 1 μg/ml, 120 minutes at room temperature, pH 5.0; for IC50: read-out: Biochemical FRET based assay pIC50 (converted)
How it was run: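 Proteolysis was read as the rise in donor fluorescence (320 nm excitation, 405 nm emission) from T0 to T120, expressed in RFU. The reaction ran 120 minutes at room temperature at pH 5.0 in citrate buffer with 4% DMSO, using […] quenched Swedish APP peptide and 1 μg/ml BACE1.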

[2] = test system: Abeta 1-42; test: Cellular αLisa assay in SKNBE2 cells, Abeta 1-42; type: cell-based, human; settings: incubated for 18 hours; for IC50: Homo sapiens, SKNBE2, 18 h, read-out: Cellular αLisa assay in SKNBE2 cells Abeta 42 pIC50 (converted)
How it was run: (§1)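 Secreted Abeta levels were measured by sandwich αLisa, pairing biotin-AbN/25 donor beads with Ab4G8 acceptor beads for total Abeta or cAb42/26 for Abeta 1-42, read at 615 nm after 650 nm excitation following 1 hour. Cells were SKNBE2 expressing wild-type hAPP695, exposed to compound for 18 hours.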

[3] = test system: Abeta total; test: Cellular αLisa assay in SKNBE2 cells, Abeta total; type: cell-based, human; settings: incubated for 18 hours; for IC50: Homo sapiens, SKNBE2, 18 h, read-out: Cellular αLisa assay in SKNBE2 cells Abetatotal pIC50 (converted)
How it was run: as §1

Sequence of recombinant BACE1 protein (P56817 46-501): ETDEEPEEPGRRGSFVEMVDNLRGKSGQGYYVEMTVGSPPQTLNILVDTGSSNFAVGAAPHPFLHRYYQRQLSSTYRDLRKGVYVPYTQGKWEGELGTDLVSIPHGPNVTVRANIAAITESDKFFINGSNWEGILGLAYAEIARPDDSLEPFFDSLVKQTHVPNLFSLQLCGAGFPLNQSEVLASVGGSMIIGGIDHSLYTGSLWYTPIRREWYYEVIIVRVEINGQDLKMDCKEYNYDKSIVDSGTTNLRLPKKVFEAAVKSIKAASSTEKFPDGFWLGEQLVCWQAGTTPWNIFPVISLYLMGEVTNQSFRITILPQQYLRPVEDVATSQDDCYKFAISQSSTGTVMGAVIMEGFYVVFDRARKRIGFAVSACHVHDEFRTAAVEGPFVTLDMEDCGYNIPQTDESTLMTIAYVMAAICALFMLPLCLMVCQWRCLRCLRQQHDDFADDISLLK

| Structure (SMILES) | IC50 [1] [nM] | IC50 [2] [nM] | IC50 [3] [nM] | Cellular αLisa assay in SKNBE2 cells Abeta 42 pIC50 [2] | Cellular αLisa assay in SKNBE2 cells Abetatotal pIC50 [3] | Biochemical FRET based assay pIC50 [1] |
| --- | --- | --- | --- | --- | --- | --- |
| N#Cc1cnc(C(=O)Nc2cccc([C@@]3(C4CC4)N=C(N)CO[C@@H]3C(F)(F)F)c2)c(Cl)c1 [Compound 290] | 97.7 | 18.6 | 17.8 |  |  |  |
| Cc1ccc(C(=O)Nc2cccc(C3(C)N=C(N)COC3(F)C(F)(F)F)c2)nc1 (single isomer, unassigned) [Compound 193] | 74.1 |  |  | 7.19 | 7.23 |  |
| C[C@]1(c2cccc(NC(=O)c3ncc(Cl)cc3Cl)c2)N=C(N)CO[C@@]1(F)C(F)(F)F [Compound 243] | 263 | 240 | 263 |  |  |  |
| C[C@@]1(c2cccc(NC(=O)c3ccc(Cl)cn3)c2)N=C(N)CO[C@H]1F (racemic) [Compound 91, trans-rac-N-[3-(5-amino-2-fluoro-3-methyl-3,6-dihydro-2H-1,4-oxazin-3-yl)phenyl]-5-chloropyridine-2-carboxamide] |  |  |  | 7.82 | 7.86 | 7.03 |
| C[C@]1(c2cccc(NC(=O)c3ncc(Cl)cc3Cl)c2)N=C(N)CO[C@]1(F)C(F)(F)F [Compound 242] | 20.4 | 12.3 | 12.3 |  |  |  |
| NC1=N[C@@](c2cccc(NC(=O)c3ncc(Cl)cc3F)c2)(C2CC2)[C@@H](F)OC1 [Compound 250, (2R,3R)—N-[3-(5-amino-3-cyclopropyl-2-fluoro-3,6-dihydro-2H-1,4-oxazin-3-yl)phenyl]-5-chloro-3-fluoropyridine-2-carboxamide] | 60.3 | 43.7 | 39.8 |  |  |  |
| CC1(c2cccc(NC(=O)c3ccc(Cl)cn3)c2)COC(F)(C(F)(F)F)C(N)=N1 (single isomer, unassigned) [Compound 154] |  |  |  | <5 | <5 | <4.52 |
| COc1cncc(-c2cccc(C3(C)N=C(N)COC3C(F)(F)F)c2)c1 (single isomer, unassigned) [Compound 101] | 178 |  |  | 7.71 | 7.7 |  |
| COc1cncc(-c2cc(C3(C)COCC(N)=N3)c(F)cc2F)c1 (racemic) [Compound 66] |  |  |  | 6.92 | 7.0 | 5.69 |
| CC#Cc1cncc(-c2ccc(F)c([C@@]3(C4CC4)N=C(N)CO[C@H]3F)c2)c1 [Compound 293] | 1380 | 1860 | 1550 |  |  |  |
| C[C@]1(c2cccc(NC(=O)c3ncc(C#N)cc3Cl)c2)N=C(N)CO[C@@]1(F)C(F)(F)F [Compound 246] | 316 | 120 | 102 |  |  |  |
| C[C@@]1(c2cccc(NC(=O)c3ccc(Cl)cn3)c2)COC2(CC2)C(N)=N1 [Compound 73] | 102 | 4.9 | 4.27 |  |  |  |
| NC1=N[C@@](c2cccc(NC(=O)c3ncc(Cl)cc3Cl)c2)(C2CC2)[C@@H](F)OC1 [Compound 256] | 42.7 | 28.8 | 26.3 |  |  |  |
| CC1(c2cccc(NC(=O)c3ccc(Cl)cn3)c2)COC(F)(C(F)(F)F)C(N)=N1 (single isomer, unassigned) [Compound 15, (R*,R*)—N-{3-[5-amino-6-fluoro-3-methyl-6-(trifluoromethyl)-3,6-dihydro-2H-1,4-oxazin-3-yl]phenyl}-5-chloropyridine-2-carboxamide] | 2750 | 490 | 3090 |  |  |  |
| C[C@]1(c2cc(NC(=O)c3cnc(OCC(F)(F)F)cn3)ccc2F)N=C(N)CO[C@]1(F)C(F)(F)F [Compound 318] | 355 | 851 | 724 |  |  |  |
| Cc1ccc(C(=O)Nc2ccc(F)c(C3(C)COCC(N)=N3)c2)nc1 (stereo not drawn) [Compound 24] |  |  |  | 7.77 | 7.73 | 6.77 |
| COc1cnc(C(=O)Nc2cccc(C3(C)N=C(N)COC3(F)C(F)(F)F)c2)cn1 (single isomer, unassigned) [Compound 178] | 20000 |  |  | 5.33 | 5.35 |  |
| CCC1(c2cc(NC(=O)c3cnc(OC)cn3)ccc2F)N=C(N)COC1F (stereo not drawn) [Compound 281] | 74.1 |  |  | 7.3 | 7.34 |  |
| N#Cc1ccc(C(=O)Nc2cccc(C3(C4CC4)N=C(N)COC3(F)C(F)(F)F)c2)nc1 (stereo not drawn) [Compound 198] |  |  |  | 6.7 | 6.69 | 6.52 |
| NC1=NC(c2cc(-c3cncnc3)ccc2F)(C2CC2)C(F)OC1 (stereo not drawn) [Compound 296] |  |  |  | <5 | <5 | 5.42 |
| C[C@]1(c2cc(-c3cncc(F)c3)c(F)cc2F)N=C(N)CO[C@@H]1C(F)(F)F [Compound 316] | 1150 | 724 | 631 |  |  |  |
| CC1(c2cccc(NC(=O)c3ncc(Cl)cc3F)c2)N=C(N)COC1(F)C(F)(F)F (single isomer, unassigned) [Compound 173] | 21.9 |  |  | 8.11 | 8.07 |  |
| CC1(c2cc(NC(=O)c3ncc(Cl)cc3F)ccc2F)COCC(N)=N1 (stereo not drawn) [Compound 35] |  |  |  | 8.37 | 8.4 | 7.11 |
| C[C@@]1(c2cc(-c3cncnc3)c(F)cc2F)N=C(N)CO[C@H]1F (racemic) [Compound 83, trans-rac-5-(2,4-difluoro-5-pyrimidin-5-ylphenyl)-6-fluoro-5-methyl-5,6-dihydro-2H-1,4-oxazin-3-amine] |  |  |  | 6.29 | 6.29 | 6.01 |
| COc1cncc(-c2ccc(F)c(C3(C)COCC(N)=N3)c2)c1 (single isomer, unassigned) [Compound 156] |  |  |  | 7.02 | 7.1 | 5.69 |
| C[C@@]1(c2cc(NC(=O)c3ccc(Cl)cc3F)ccc2F)COCC(N)=N1.Cl [Compound 68] |  |  |  | 7.06 | 7.04 | 6.35 |
| COc1cncc(-c2cccc(C3(C)N=C(N)COC3F)c2)c1 (single isomer, unassigned) [Compound 88] | > 30200 |  |  | 5.66 | 5.65 |  |
| C[C@]1(c2cc(NC(=O)c3ncc(C#N)cc3Cl)ccc2F)N=C(N)CO[C@H]1C(F)(F)F [Compound 308] | 49 | 6.31 | 6.17 |  |  |  |
| C[C@]1(c2cccc(-c3cncnc3)c2)CO[C@@](C)(C(F)(F)F)C(N)=N1 (racemic) [Compound 162, cis-rac-2,5-dimethyl-5-(3-pyrimidin-5-ylphenyl)-2-(trifluoromethyl)-5,6-dihydro-2H-1,4-oxazin-3-amine] |  |  |  | 6.1 | 6.14 | 5.21 |
